Laboratory results: US11214803B2, “Modulators of YAP1 expression” (Ionis Pharmaceuticals, Inc., priority 2019, dated 2022)
Marks after values point to notes of the source that are not given here. Strand notation (5' to 3'): a small letter for the sugar, then the base; units joined by * are phosphorothioate-linked, units joined directly phosphodiester-linked; [ ] holds rarer units or linkages, { } end groups; capitals alone tell only the bases. k = constrained ethyl (cEt); [5mC] = 5-methylcytosine; d = 2'-deoxy (DNA)

Test system: Yap1 mRNA
Test: Antisense inhibition of human Yap1 in A-431 cells by cEt gapmers, single dose (Example 4, RTS4814)
Assay type: cell-based
Outline: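 A-431 cells took up 3-10-3 cEt gapmers (16-mer, full phosphorothioate, 5-methylcytosines) by free uptake at 2,000 nM for about 48 h. Yap1 mRNA was quantified by qRT-PCR, normalized to total RNA (RIBOGREEN), and reported as % of untreated control.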

[1] = Yap1 mRNA remaining as percent of untreated control, 3-10-3 cEt gapmers, A-431 cells, Table 36
[2] = Table 16, A-431 cells, 5,000 cells per well, free uptake, 2,000 nM, approximately 48 hours, RTS4814, normalized to RIBOGREEN, Yap1 mRNA relative to untreated control cells
[3] = Table 14, A-431 cells, 5,000 cells per well, free uptake, 2,000 nM, approximately 48 hours, RTS4814, normalized to RIBOGREEN, Yap1 mRNA relative to untreated control, * = targets amplicon region of primer probe set
[4] = Table 15, A-431 cells, 5,000 cells per well, free uptake, 2,000 nM, approximately 48 hours, RTS4814, normalized to RIBOGREEN, Yap1 mRNA relative to untreated control, * = targets amplicon region of primer probe set
[5] = Table 17, A-431 cells, 5,000 cells per well, free uptake, 2,000 nM, approximately 48 hours, RTS4814, normalized to RIBOGREEN, Yap1 mRNA relative to untreated control cells
[6] = Yap1 mRNA remaining as percent of untreated control, 3-10-3 cEt gapmers, A-431 cells, Table 37

## 1075606 (antisense kG*k[5mC]*kT*dA*dA*dA*d[5mC]*d[5mC]*dT*dA*d[5mC]*dA*d[5mC]*kG*k[5mC]*kT) [compound 1075606]
[1]
  YAP1 (% UTC): 82 % UTC

## 1075522 (k[5mC]*kA*kA*dA*dT*d[5mC]*dG*dA*dG*dG*d[5mC]*dG*dA*kA*kT*k[5mC]; antisense) [Compound 1075522]
[2]
  YAP1 (% UTC): 82 % UTC

## 1075958 (k[5mC]*kA*kT*dT*dA*dT*dG*dA*d[5mC]*dA*dT*dT*d[5mC]*k[5mC]*k[5mC]*k[5mC]; antisense) [compound 1075958]
[1]
  YAP1 (% UTC): 12 % UTC

## 1075426 (antisense kG*kT*kA*dT*dT*dA*dT*dT*dA*dA*dT*d[5mC]*d[5mC]*kT*kG*kT) [Compound 1075426]
[2]
  YAP1 (% UTC): 49 % UTC

## 1075648 (kT*k[5mC]*kA*dA*dT*dA*dA*dA*dG*dT*dG*dG*dG*kA*k[5mC]*kT; antisense) [Compound 1075648]
[3]
  YAP1 (% UTC): 67 % UTC

## 1076290 (k[5mC]*kT*k[5mC]*d[5mC]*dA*dA*d[5mC]*dG*dG*dA*d[5mC]*dA*dA*k[5mC]*kT*kT; antisense) [Compound 1076290]
[2]
  YAP1 (% UTC): 28 % UTC

## 1074496 (kA*kA*kT*dA*dA*d[5mC]*d[5mC]*dA*dT*d[5mC]*d[5mC]*d[5mC]*dA*kA*kG*k[5mC]; antisense) [Compound 1074496]
[3]
  YAP1 (% UTC): 69 % UTC

## 1074689 (antisense k[5mC]*kT*k[5mC]*d[5mC]*d[5mC]*d[5mC]*d[5mC]*dT*dA*dA*dG*d[5mC]*dT*kA*kA*kA) [Compound 1074689]
[4]
  YAP1 (% UTC): 70 % UTC

## 1074838 (kA*kT*kA*dA*d[5mC]*dA*dA*d[5mC]*dA*dT*dG*d[5mC]*dT*kT*kG*k[5mC]; antisense) [compound 1074838]
[1]
  YAP1 (% UTC): 9 % UTC

## 1074338 (antisense kG*kG*kA*dT*dT*dT*dT*dG*dA*dG*dT*d[5mC]*d[5mC]*k[5mC]*kA*k[5mC]) [Compound 1074338]
[2]
  YAP1 (% UTC): 77 % UTC

## 1076419 (kA*kT*kA*dT*dA*dA*dT*dA*dA*d[5mC]*d[5mC]*d[5mC]*dA*kT*kT*kG; antisense) [Compound 1076419]
[5]
  YAP1 (% UTC): 47 % UTC

## 1074339 (antisense kA*k[5mC]*kT*dG*dG*dA*dT*dT*dT*dT*dG*dA*dG*kT*k[5mC]*k[5mC]) [Compound 1074339]
[5]
  YAP1 (% UTC): 31 % UTC

## 1076546 (antisense k[5mC]*k[5mC]*k[5mC]*d[5mC]*dA*dA*d[5mC]*d[5mC]*dT*dG*dA*dG*dG*kA*kG*k[5mC]) [Compound 1076546]
[2]
  YAP1 (% UTC): 94 % UTC

## 1076451 (k[5mC]*k[5mC]*kT*dT*dA*dA*dG*dA*dA*d[5mC]*dA*dT*dG*kA*kG*kG; antisense) [Compound 1076451]
[5]
  YAP1 (% UTC): 77 % UTC

## 1074593 (antisense kA*kG*kG*dA*dG*d[5mC]*dA*dA*dG*dT*d[5mC]*dT*dT*kG*kT*kA) [Compound 1074593]
[4]
  YAP1 (% UTC): 6 % UTC

## 1075639 (antisense kA*kA*kT*dT*dA*dA*d[5mC]*d[5mC]*dA*dG*dA*dA*dG*k[5mC]*k[5mC]*kT) [compound 1075639]
[6]
  YAP1 (% UTC): 101 % UTC

## 1074402 (antisense kT*kT*kA*dT*dG*dG*dA*dA*dA*dT*dT*dT*d[5mC]*k[5mC]*kG*kG) [Compound 1074402]
[2]
  YAP1 (% UTC): 25 % UTC

## 1076096 (kA*kA*kT*dA*dA*dT*dA*dA*dA*d[5mC]*dG*dA*dT*kT*k[5mC]*kT; antisense) [Compound 1076096]
[3]
  YAP1 (% UTC): 71 % UTC

## 1075159 (k[5mC]*kA*kA*dA*dA*dA*dA*dT*d[5mC]*dA*d[5mC]*dG*dG*k[5mC]*kA*kA; antisense) [compound 1075159]
[6]
  YAP1 (% UTC): 63 % UTC

## 1075745 (k[5mC]*kT*kT*d[5mC]*dA*dA*dA*dA*dG*d[5mC]*dA*d[5mC]*dG*kG*kT*kG; antisense) [Compound 1075745]
[4]
  YAP1 (% UTC): 58 % UTC

## 1075063 (antisense kT*kA*k[5mC]*dG*dG*dA*dA*dG*dG*d[5mC]*d[5mC]*dA*dA*k[5mC]*kT*kG) [compound 1075063]
[6]
  YAP1 (% UTC): 16 % UTC

## 1075075 (antisense kA*kA*kT*dT*dT*dT*dA*dT*dA*dA*dG*d[5mC]*d[5mC]*k[5mC]*kA*k[5mC]) [Compound 1075075]
[5]
  YAP1 (% UTC): 9 % UTC

## 1074583 (DNA kG*kT*kA*dA*dA*d[5mC]*d[5mC]*dA*d[5mC]*dT*dA*dT*dA*kA*kA*kG; antisense) [compound 1074583]
[6]
  YAP1 (% UTC): 30 % UTC

## 1074177 (antisense k[5mC]*k[5mC]*kT*d[5mC]*d[5mC]*d[5mC]*d[5mC]*d[5mC]*dG*dA*d[5mC]*dG*d[5mC]*kG*k[5mC]*kA) [Compound 1074177]
[4]
  YAP1 (% UTC): 69 % UTC

## 1074886 (k[5mC]*kA*kG*dG*dG*d[5mC]*dT*dA*dA*d[5mC]*dT*d[5mC]*d[5mC]*kT*kG*k[5mC]; antisense) [compound 1074886]
Table after Table 37, headed TABLE 32 (gapmers targeting SEQ ID NO.: 3), A-431 cells, free uptake, 2,000 nM, approximately 48 hours, RTS4814
  YAP1 (% UTC): 104 % UTC

## 1074434 (antisense kA*k[5mC]*kT*dT*d[5mC]*dT*dA*dA*dG*dT*d[5mC]*dT*dG*kA*kG*kT) [Compound 1074434]
[2]
  YAP1 (% UTC): 51* % UTC

## 1075968 (kT*kA*kT*dT*dT*dA*dA*dG*d[5mC]*d[5mC]*dA*dA*dA*k[5mC]*k[5mC]*kG; antisense) [Compound 1075968]
[3]
  YAP1 (% UTC): 5 % UTC

## 1076321 (k[5mC]*kA*kA*dT*dA*dT*d[5mC]*dA*d[5mC]*dT*dT*dG*dG*kG*k[5mC]*k[5mC]; antisense) [Compound 1076321]
[4]
  YAP1 (% UTC): 63 % UTC

## 1076374 (antisense kA*kT*kA*dA*d[5mC]*dG*dG*dA*dT*dA*dT*dA*d[5mC]*kA*kA*kT) [compound 1076374]
[1]
  YAP1 (% UTC): 15 % UTC

## 1076342 (antisense k[5mC]*kA*kT*dT*dA*dA*d[5mC]*dT*dA*d[5mC]*dA*dA*d[5mC]*kT*kG*kT) [compound 1076342]
[1]
  YAP1 (% UTC): 33 % UTC

## 1074242 (antisense kA*kG*kA*dA*dG*dA*dT*dG*dT*d[5mC]*dT*dT*dT*kG*k[5mC]*k[5mC]) [Compound 1074242]
[2]
  YAP1 (% UTC): 56 % UTC

## 1074742 (kA*kA*kA*dG*dG*dA*d[5mC]*dT*d[5mC]*dT*dT*dA*dG*kG*kT*k[5mC]; antisense) [compound 1074742]
[1]
  YAP1 (% UTC): 25 % UTC

## 1076032 (kT*kA*kT*dA*dA*dT*dT*dT*d[5mC]*d[5mC]*d[5mC]*dT*dG*kA*kT*k[5mC]; antisense) [Compound 1076032]
[3]
  YAP1 (% UTC): 105 % UTC

## 1076195 (kA*kA*kT*dA*dA*d[5mC]*dA*dT*dG*dG*dT*dT*d[5mC]*kT*kG*kT; antisense) [Compound 1076195]
[5]
  YAP1 (% UTC): 20 % UTC

## 1074262 (antisense kG*k[5mC]*k[5mC]*dG*dA*dG*dT*dT*d[5mC]*dA*dT*d[5mC]*dA*kT*kA*kT) [compound 1074262]
[1]
  YAP1 (% UTC): 48 % UTC

## 1076192 (k[5mC]*kT*kA*d[5mC]*dA*dA*d[5mC]*d[5mC]*dT*dG*dG*dA*d[5mC]*kT*kT*kT; antisense) [Compound 1076192]
[3]
  YAP1 (% UTC): 34 % UTC

## 1075363 (kA*k[5mC]*kA*d[5mC]*dA*dA*dT*dA*dT*d[5mC]*dA*dA*dG*kT*k[5mC]*k[5mC]; antisense) [Compound 1075363]
[5]
  YAP1 (% UTC): 25 % UTC

## 1075427 (antisense kT*kA*kT*dA*dA*dG*dG*d[5mC]*dA*dT*d[5mC]*dT*dT*kG*kG*kA) [Compound 1075427]
[5]
  YAP1 (% UTC): 60 % UTC

## 1076002 (kA*kT*kT*dT*dA*dA*dT*dG*dG*d[5mC]*dT*dT*dG*k[5mC]*kA*kT; antisense) [Compound 1076002]
[2]
  YAP1 (% UTC): 21 % UTC

## 1074401 (antisense kT*k[5mC]*k[5mC]*dG*dG*dT*dG*d[5mC]*dA*dT*dG*dT*dG*kT*k[5mC]*kT) [Compound 1074401]
[4]
  YAP1 (% UTC): 18 % UTC

## 1076320 (k[5mC]*kA*kT*dT*dA*dA*d[5mC]*d[5mC]*dT*d[5mC]*dA*d[5mC]*d[5mC]*k[5mC]*kA*kT; antisense) [Compound 1076320]
[3]
  YAP1 (% UTC): 52 % UTC

## 1076503 (kA*kA*kT*dT*dA*d[5mC]*d[5mC]*d[5mC]*d[5mC]*dT*dG*dT*dG*kA*kG*kG; antisense) [compound 1076503]
[6]
  YAP1 (% UTC): 77 % UTC

## 1074263 (antisense kA*kG*k[5mC]*d[5mC]*dG*dA*dG*dT*dT*d[5mC]*dA*dT*d[5mC]*kA*kT*kA) [compound 1074263]
[6]
  YAP1 (% UTC): 34 % UTC

## 1075171 (antisense k[5mC]*k[5mC]*k[5mC]*d[5mC]*dA*dA*dT*dA*dT*dA*dA*dA*dG*kA*kA*k[5mC]) [Compound 1075171]
[5]
  YAP1 (% UTC): 88 % UTC

## 1075906 (k[5mC]*k[5mC]*kT*d[5mC]*dA*dA*dT*dA*d[5mC]*dA*dG*dA*dT*kG*kA*kA; antisense) [Compound 1075906]
[2]
  YAP1 (% UTC): 39 % UTC

## 1074144 (antisense kA*kG*k[5mC]*dG*dG*d[5mC]*dG*dA*d[5mC]*dG*dG*d[5mC]*dT*kG*k[5mC]*kG) [Compound 1074144]
[3]
  YAP1 (% UTC): 92 % UTC

## 1076054 (k[5mC]*kA*kT*dT*dA*dG*dA*d[5mC]*dT*dT*dT*d[5mC]*dT*kG*kT*k[5mC]; antisense) [compound 1076054]
[1]
  YAP1 (% UTC): 21 % UTC

## 1075425 (antisense kA*kT*kT*dA*dT*dT*dA*dA*dT*d[5mC]*d[5mC]*dT*dG*kT*k[5mC]*k[5mC]) [Compound 1075425]
[4]
  YAP1 (% UTC): 26 % UTC
